Consider one molecule from article PMC6508677, “Identification of druggable small molecule antagonists of the Plasmodium falciparum hexose transporter PfHT and assessment of ligand access to the glucose permeation pathway via FLAG-mediated protein engineering” (PLoS ONE, 2019).

Where “and” joins values, the source holds several entries; their conditions need not be identical. Equal entries are not always repeated.

This test deals with T1, PfHT (Plasmodium falciparum, UniProt Q7KWJ5).
T1 sequence (Q7KWJ5 1-504): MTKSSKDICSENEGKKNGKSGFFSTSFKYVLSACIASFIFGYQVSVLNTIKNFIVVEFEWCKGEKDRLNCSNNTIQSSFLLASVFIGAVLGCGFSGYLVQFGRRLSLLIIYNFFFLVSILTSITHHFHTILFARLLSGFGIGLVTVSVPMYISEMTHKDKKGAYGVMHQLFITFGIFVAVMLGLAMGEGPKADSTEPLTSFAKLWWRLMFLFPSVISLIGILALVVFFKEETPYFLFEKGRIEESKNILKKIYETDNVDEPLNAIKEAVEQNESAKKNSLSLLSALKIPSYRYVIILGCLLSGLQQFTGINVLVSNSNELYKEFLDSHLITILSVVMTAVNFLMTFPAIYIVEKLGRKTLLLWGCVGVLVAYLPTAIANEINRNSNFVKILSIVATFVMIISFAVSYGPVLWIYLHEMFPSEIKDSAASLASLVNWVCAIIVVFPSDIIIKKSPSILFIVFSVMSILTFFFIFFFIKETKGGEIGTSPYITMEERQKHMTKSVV
The test can be described thus: Kinetic analysis (Dixon plot) of zero-trans D-fructose uptake in HEK293PfHT cells. Format: cell-based. The arrangement: expressed in transfected cells; host or cells: HEK293 (HEK293-FLIP, native hGLUT1 knocked down by shRNA). The protocol:
Glucose uptake by P. falciparum was performed essentially as described. P. falciparum strain 3D7 was cultured in 100 mm tissue culture dishes (Techno Plastic Products) in a 2% suspension of human erythrocytes and RPMI 1640 medium until reaching > 7.5% parasitemia. Cells were pelleted via centrifugation and resuspended in RPMI 1640 medium. To determine the uptake of radiolabeled glucose into the parasite, parasites were isolated from infected erythrocytes by permeablization with saponin (0.05 w/v), followed by centrifugation, aspiration of supernatant and washing of the pellet 3X with saline solution (135 mM NaCl, 2 mM KCl, 25 mM HEPES, 0.2 mM glucose and 1 mM MgCl2; pH 7.1) to remove cellular debris. WU-1 or DMSO vehicle were added to 100 μl parasites (resuspended in saline) 5 min prior to the addition of 100 μl [^14C]2-DOG (0.2- μCi/ml final concentration). 2-DG uptake was stopped after 2 min by layering the entire reaction over 300 μl of an oil mixture (5:4 mix of dibutyl phthalate / dinonyl phthalate) in Eppendorf tubes and centrifuged at 15,850 × g for 2 mins. The ratio of the estimated intracellular concentration of radiolabel relative to the extracellular concentration were calculated as described. Uptake of radiolabeled hexose into HEK293 cells was measured in glucose-free HBSS as described previously. Briefly, cells were plated at 400,000 cells/well overnight at 37°C in 24-well plates pre-treated with PEI. After 30-min incubation at 37°C in glucose-free HBSS in the presence of vehicle or increasing concentrations of compound, 2-DG uptake was measured in glucose-free HBSS for 4 min at 37°C. Cultures were washed in ice-cold 1X PBS and lysed in 0.1% Triton X-100 in 1X PBS. Radiolabeled hexose uptake was determined by liquid scintillation counting (Ultima Gold, Thermo Fisher) and normalized to total protein per well. […] Incubation times had been previously determined as being in the linear range of time-dependent radiolabeled hexose uptake (2 min for 2-DG uptake into freed parasites; 2 and 4 min for D-Frc and 2-DG uptake HEK cell lines, respectively). […]

A word on the Ki: it is the equilibrium dissociation constant of an inhibitor or competing ligand from its target. For the molecule `Cc1ccc(S(=O)(=O)CCNC(=O)c2c(-c3c(Cl)cccc3Cl)noc2C)cc1` [WU-1, 3-(2,6-dichlorophenyl)-5-methyl-N-[2-(4-methylbenzenesulfonyl)ethyl]-1,2-oxazole-4-carboxamide], affinity (Ki (Dixon plot, horizontal intercepts), zero-trans D-fructose uptake, HEK293PfHT, mean) was put at a Ki of 4.4 ± 0.3 µM; the Ki (Ki (µM) from individual Dixon lines, one value per D-fructose concentration line) was 5.32 µM and 4.25 µM and 3.83 µM and 4.22 µM. The mode of inhibition entry (zero-trans D-fructose uptake/hexose influx by PfHT) is “non-competitive inhibitor”.
